Test results from patent US6121241A, “Anticoagulant peptide aldehyde derivatives” (Gyogyszerkutato Intezet Kft., priority 1996, dated 2000).
Where two headings read alike, the source gives them in different places.

Columns and labels:
human factor Xa = biological target: T1, human factor Xa (Homo sapiens, UniProt P00742); test: Inhibition of the amidolytic effect of factor Xa in solution on Bz-Ile-Glu-Gly-Arg-pNA (method M6); assay type: biochemical; conditions: Table 2; Bz-Ile-Glu-Gly-Arg-pNA, isolated human factor Xa; read-out: B: IC50 (factor Xa inhibiting effect)
T1 construct: purchased SIGMA
T1 sequence (P00742 235-488 limits assumed): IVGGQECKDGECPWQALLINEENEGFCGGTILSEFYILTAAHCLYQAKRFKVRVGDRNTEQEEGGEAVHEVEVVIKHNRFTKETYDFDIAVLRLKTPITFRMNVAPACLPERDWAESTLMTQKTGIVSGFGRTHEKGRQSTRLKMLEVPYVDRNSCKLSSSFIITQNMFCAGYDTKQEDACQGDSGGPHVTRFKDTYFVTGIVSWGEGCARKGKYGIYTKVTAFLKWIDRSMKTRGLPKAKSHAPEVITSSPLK
T1 sequence (P00742 41-179 partner limits assumed): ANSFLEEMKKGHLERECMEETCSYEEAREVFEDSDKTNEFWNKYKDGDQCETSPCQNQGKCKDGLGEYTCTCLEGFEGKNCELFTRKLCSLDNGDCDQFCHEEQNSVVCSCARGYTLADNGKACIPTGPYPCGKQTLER
Protocol: (§1) Anticoagutant activity (i.e. inhibition of the proteolytic reactions in the process) is measured by anticoagulant tests, e.g. by the thrombin time (TT), activated partial thromboplastin time (APTT) and prothrombin time (PT) tests [E. J. W. Bovie et al; Mayo Clinic Laboratory Manual of Hemostasis; W. B. Sanuders Co., Philadelphia (1971)]. Plasma, inhibited in spontaneous coagulation, e.g. citrate-plasma, is made to coagulate and the required coagulation time is measured. Upon the action of anticoagulants the coagulation time is prolonged proportionally to the inhibition of the reaction(s) in the process. The anticoagulant effect can be characterized by the substance concentration required to double the coagulation time compared to the control (IC50). The effect of anticoagulants on individual coagulant proteases is measured by the amidolytic method [R. Lottenberg et al., Methods in Enzymol. 80, 341 (1981); G. Cleason, Blood Coagulation and Fibrinolysis 5, 411 (1994)]. The isolated active factor (e.g. thrombin, fXa) and its chromogen or fluorogen peptide-amide substrate are reacted in the presence or absence of the inhibitor, resp. The enzyme inhibiting action is characterized by the inhibitory constant (IC50) measured during amidolysis.
(§2) The in vitro anticoagulant effect of the compounds of general formula (I) was measured by the prothrombin time (PT), activated partial thromboplastin time (APTT) and thrombin time (TT) tests [D. Bagdy et at., Thromb. Haemost. 67, 325 (1992)]. The Xa-factor-inhibiting effect of the compounds was also determined by using the Bz-Ile-Glu-Gly-Arg-pNA chromogen substrate (see method M6).
Assay of the Inhibition of Factor Xa in Solution on a 96-well Microtiter Plate
a) 1.3 U/mL factor Xa (human, SIGMA), 0.1-1.0-10 and 100 μg/mL solutions in phosphate buffer (0.1 M sodium phosphate and 0.05 M sodium chloride, pH 7.4) of the peptide inhibitors and […] solutions of the substrate Bz-Ile-Glu-Gly-Arg-pNA in distilled water are used.
b) Three reaction mixtures are prepared from the control and each peptide solution. 30 μL each of the peptide and the buffer, serving as control, 30 μL factor Xa, 90 μL butter and 150 μL substrate are placed in the wells of the plate, then after 10 minutes the extinction values are read at 405 nm The procedure is continued as described in Method M2, point c).

[1] = system: citrate plasma coagulation (PT); test: Prothrombin time (PT) plasma clotting test; assay type: biochemical
Protocol: as §1
(§3) In the TT test coagulation is initiated by the thrombin added to the citrate plasma. In the system 22 pmol/mL of thrombin is functioning and in the presence of plasma components its inhibition can be measured on the fibrinogen (one of the natural substrates of thrombin) present In the APTT and PT tests the full coagulation process is made to proceed. Depending on the activator fX is activated by the extrinsic or intrinsic pathway. The generated fXa activates prothrombin to thrombin which, in turn, triggers plasma coagulation. In the test the coagulation time is prolonged if the enzymes or one of them is inhibited by the inhibitor. In the APTT and PT tests at most 40 pmole/ml Xa is generated (this is the full amount of factor X present in both systems) while 150 pmole/ml (APTT) and 350 pmole/ml (PT) are generated from thrombin [B Kaiser et al., Thromb. Res. 65, 157 (1992)].
as §2

[2] = system: whole blood clotting time (WBCT); test: Ex vivo whole blood clotting time (WBCT) in rabbits after p.o. dosing; parameters: species or system New Zealand white rabbits; conditions: p.o. 5 mg/kg
Protocol: (§4) The anticoagulant and platelet aggregation inhibiting effect of the compounds of general formula (I) was studied In New Zealand white rabbits ex vivo according to D. Bagdy et al [Thromb. Haemost 67. 357 (1992). The compounds were dissolved in buffered isotonic saline solution and administered i.v. (0,04-5.0 mg/kg) or by infusion (0.25-5.0 mg/kg/h) or subcutaneously (0.5-6.0 mg/kg) or p.o. (2.5-20 mg/kg). The effect of the compounds was detectable already within 30 minutes following p.o. administration, peak values were attained after 60-180 minutes and the therapeutic level was maintained dose-dependently for 3→6 hours.
(§5) The in vivo effect of D-cHga Pro-Arg-H (1) is presented in detail in Tables 5 and 6. The corresponding values of C1 are listed as controls. The compound was administered p.o. in doses of 5 mg/kg. The blood samples drawn from the caudal vein in every 30-60 minutes were analyzed. The whole blood clotting time (WBCT) and the inhibition of thrombin-induced blood platelet aggregation (PAI) were determined. The activated partial thromboplastin time (APTT) and the thrombin time (TT) in the citrate plasma obtained from the blood sample were also measured. The APTT and TT values are compiled in Table 5 and the WBCT and PAI values in Table 6.

thrombin time (TT) = test: Ex vivo TT in citrate plasma of rabbits after p.o. dosing; parameters: species or system New Zealand white rabbits; conditions: p.o. 5 mg/kg
Protocol: as §4, §5

thrombin [3] = biological target: T2, thrombin (Homo sapiens, UniProt P00734); test: Thrombin time (TT) plasma clotting test; assay type: biochemical
T2 construct: The isolated active factor (e.g. thrombin, fXa) and its chromogen or fluorogen peptide-amide substrate are reacted
Protocol: as §1, §3, §2

[4] = system: citrate plasma coagulation (APTT); test: Activated partial thromboplastin time (APTT) plasma clotting test; assay type: biochemical
Protocol: as §1, §3, §2

thrombin [5] = biological target: T2, thrombin; test: Inhibition of the amidolytic effect of thrombin on Tos-Gly-Pro-Arg-pNA; assay type: biochemical; conditions: Tos-Gly-Pro-Arg-pNA substrate
Protocol: as §1
In the case of D-MePhe-Pro-Arg-H (C1) the concentration doubling the clotting time in the TT, APTT and PT tests amounted to 87, 622 and 2915 nM, resp.

[6] = Table 2, concentration doubling clotting time, read-out: A: IC50, PT
[7] = Table 2, concentration doubling clotting time, read-out: A: IC50, TT

N=C(N)NCCC[C@@H](C=O)NC(=O)[C@H]1CCCN1C(=O)C(O)C1CCCCCC1.N=C(N)NCCC[C@@H](C=O)NC(=O)[C@H]1CCCN1C(=O)C(O)C1CCCCCC1.O=S(=O)(O)O (stereo partly drawn) [Compound 1, D-2-Cycloheptyl-2-hydroxyacetyl-L-prolyl-L-arginine aldehyde hemisulfate]
IC50 (human factor Xa): 63 nM | IC50 [1, 6]: 1200 nM | WBCT relative clotting time ([2]; 0 min): 1.0 | WBCT relative clotting time ([2]; 30 min): 1.80 ± 0.36 | WBCT relative clotting time ([2]; 45 min): 2.03 ± 0.35 | WBCT relative clotting time ([2]; 60 min): 1.98 ± 0.30 | WBCT relative clotting time ([2]; 90 min): 1.78 ± 0.26 | WBCT relative clotting time ([2]; 120 min): 1.52 ± 0.13 | WBCT relative clotting time ([2]; 180 min): 1.29 ± 0.07 | WBCT relative clotting time ([2]; 240 min): 1.13 ± 0.04 | TT relative clotting time (thrombin time (TT); 0 min): 1.0 | TT relative clotting time (thrombin time (TT); 30 min): 10.57 ± 5.98 | TT relative clotting time (thrombin time (TT); 45 min): 10.89 ± 5.89 | TT relative clotting time (thrombin time (TT); 60 min): 11.67 ± 5.69 | TT relative clotting time (thrombin time (TT); 90 min): 14.00 ± 6.48 | TT relative clotting time (thrombin time (TT); 120 min): 10.60 ± 4.22 | TT relative clotting time (thrombin time (TT); 180 min): 2.22 ± 0.71 | TT relative clotting time (thrombin time (TT); 240 min): 1.23 ± 0.07 | TT relative clotting time (thrombin time (TT); 300 min): 1.13 ± 0.05 | IC50 (thrombin [3]; [7]): 110 nM | IC50 ([4]; Table 2, concentration doubling clotting time, read-out: A: IC50, APTT): 370 nM

CN[C@H](Cc1ccccc1)C(=O)N1CCC[C@H]1C(=O)N[C@H](C=O)CCCNC(=N)N [Compound C1, D-MePhe-Pro-Arg-H]
IC50 (human factor Xa): 9130 nM | IC50 [1, 6]: 2920 nM | IC50 ([1]; read-out: concentration doubling the clotting time in the PT test): 2920 nM | WBCT relative clotting time ([2]; 0 min): 1.0 | WBCT relative clotting time ([2]; 30 min): 1.07 ± 0.13 | WBCT relative clotting time ([2]; 45 min): 1.26 ± 0.07 | WBCT relative clotting time ([2]; 60 min): 1.55 ± 0.17 | WBCT relative clotting time ([2]; 90 min): 1.61 ± 0.34 | WBCT relative clotting time ([2]; 120 min): 1.45 ± 0.21 | WBCT relative clotting time ([2]; 180 min): 1.44 ± 0.08 | WBCT relative clotting time ([2]; 240 min): 1.22 ± 0.08 | TT relative clotting time (thrombin time (TT); 0 min): 1.0 | TT relative clotting time (thrombin time (TT); 30 min): 1.52 ± 0.17 | TT relative clotting time (thrombin time (TT); 45 min): 2.50 ± 0.44 | TT relative clotting time (thrombin time (TT); 60 min): 4.75 ± 1.38 | TT relative clotting time (thrombin time (TT); 90 min): 10.50 ± 5.49 | TT relative clotting time (thrombin time (TT); 120 min): 5.51 ± 3.59 | TT relative clotting time (thrombin time (TT); 180 min): 2.05 ± 0.38 | TT relative clotting time (thrombin time (TT); 240 min): 1.81 ± 0.39 | IC50 (thrombin [5]): 2 nM | IC50 (thrombin [3]; Table 1, concentration doubling clotting time, read-out: B: IC50, TT): 90 nM | IC50 (thrombin [3]; [7]): 90 nM | IC50 (thrombin [3]; read-out: concentration doubling the clotting time in the TT test): 87 nM | IC50 ([4]; read-out: concentration doubling the clotting time in the APTT test): 622 nM
